≈ marks a conversion by molar mass, not a printed value. Like-named read-outs stand apart in the source and are kept apart here.
Key:
[1] = as measured at 25° C.; for a monocarboxylic acid pKa1 is the pKa; cited from earlier work
[2] = Dynamic vapour sorption (DVS); format: physicochemical; conditions: for DVS mass uptake / DVS mass uptake as equivalents of water: at 90% RH, 25° C.; for solid form after DVS (XRPD): post-DVS; for hygroscopicity: DVS up to 90% RH
Protocol: Approximately 10-20 mg of sample was placed into a mesh vapour sorption balance pan and loaded into an Intrinsic dynamic vapour sorption balance by Surface Measurement Systems. The sample was subjected to a ramping profile from 40-90% relative humidity (RH) at 10% increments, maintaining the sample at each step until a stable weight had been achieved (dm/dt 0.004%, minimum step length 30 minutes, maximum step length 500 minutes) at 25° C. After completion of the sorption cycle, the sample was dried using the same procedure to 0% RH and then a second sorption cycle back to 40% RH. Two cycles were performed. The weight change during the sorption/desorption cycles were plotted, allowing for the hygroscopic nature of the sample to be determined. XRPD analysis was then carried out on any solid retained.

Thermodynamic solubility = conditions: unbuffered water, thermodynamic from solid

Compound | pKa1 [1] | DVS mass uptake [2] [wt. %] | DVS mass uptake as equivalents of water [2] [eq. water] | solid form after DVS (XRPD) [2] | other results
O=C(O)[C@@H](O)c1ccccc1 [S-(+)-mandelic acid] | 3.37 |  |  |  | 
Cc1ccccc1C(=O)O [toluic acid] | 4-5 |  |  |  | 
O=C(O)Cc1ccccc1 [phenylacetic acid] | 4.31 |  |  |  | 
O=C(O)c1ccc2ccccc2c1 [2-naphthoic acid] | 4.16 |  |  |  | 
CC(C)NC[C@H](O)COc1cccc2[nH]ccc12.O=C(O)c1ccccc1 [S-pindolol benzoate Pattern 1, S-pindolol benzoate] |  | 0.23 | 0.05 | Pattern 1 retained, mass uptake | Thermodynamic solubility, free base concentration (pH 1.2): 29.9 mg/mL; solid form after thermodynamic solubility experiment (pH 1.2): Converted to amorphous.; Thermodynamic solubility, free base concentration (pH 4.5): 20.1 mg/mL; solid form after thermodynamic solubility experiment (pH 4.5): Converted to amorphous.; Thermodynamic solubility, free base concentration (pH 6.8): 17.4 mg/mL; solid form after thermodynamic solubility experiment (pH 6.8): Pattern 1 retained.
O=C(O)c1cccc2ccccc12 [1-naphthoic acid] | 3.67 |  |  |  | 
CC(C)NC[C@H](O)COc1cccc2[nH]ccc12 [S-pindolol free base, (2S)-1-(1H-indol-4-yloxy)-3-(propan-2-ylamino)propan-2-ol, reference compound] |  | 0.36 | 0.05 | remained unchanged | solubility thermodynamic (Thermodynamic solubility): 1800 µg/mL (≈ 7.25 mM); hygroscopicity [2]: slightly hygroscopic
O=C(O)CCCC(=O)O [glutaric acid] | 4.34 |  |  |  | 
CC(C)NC[C@H](O)COc1cccc2[nH]ccc12.O=C(O)c1ccccc1 [S-pindolol benzoate Pattern 2, S-pindolol benzoate] |  |  |  | Pattern 2 retained, organic solvent | Thermodynamic solubility, free base concentration (pH 1.2): 23.5 mg/mL; solid form after thermodynamic solubility experiment (pH 1.2): Salt disproportionated.; Thermodynamic solubility, free base concentration (pH 4.5): 17.6 mg/mL; solid form after thermodynamic solubility experiment (pH 4.5): Pattern 2 retained.; Thermodynamic solubility, free base concentration (pH 6.8): 9.9 mg/mL; solid form after thermodynamic solubility experiment (pH 6.8): Pattern 2 retained.; hygroscopicity [2]: non-hygroscopic
CC(C)NC[C@H](O)COc1cccc2[nH]ccc12.O=C(O)CCC(=O)O [S-pindolol succinate Pattern 1, S-pindolol succinate] |  | 0.70 | 0.14 | retained | 
